ChEMBL document CHEMBL4041516, “SAR study of 5-alkynyl substituted quinazolin-4(3H)-ones as phosphoinositide 3-kinase delta (PI3Kδ) inhibitors” (Eur J Med Chem, 2017)
Calls of active or inactive are those of the source. The calls are words filed in the database; no cut-off is given here.

Assays:
Pfeiffer = experiment: Antiproliferative activity against human Pfeiffer cells measured after 72 hrs by alamar blue assay; format: functional, cell-based
[1] = biological target: T1, Phosphatidylinositol 4,5-bisphosphate 3-kinase catalytic subunit delta isoform (Homo sapiens) (UniProt O00329); experiment: Inhibition of PI3Kdelta-mediated Akt phosphorylation at […] in human SUDHL6 cells measured after 1 hr by Western blot analysis; format: cell-based
T1 sequence (whole entry): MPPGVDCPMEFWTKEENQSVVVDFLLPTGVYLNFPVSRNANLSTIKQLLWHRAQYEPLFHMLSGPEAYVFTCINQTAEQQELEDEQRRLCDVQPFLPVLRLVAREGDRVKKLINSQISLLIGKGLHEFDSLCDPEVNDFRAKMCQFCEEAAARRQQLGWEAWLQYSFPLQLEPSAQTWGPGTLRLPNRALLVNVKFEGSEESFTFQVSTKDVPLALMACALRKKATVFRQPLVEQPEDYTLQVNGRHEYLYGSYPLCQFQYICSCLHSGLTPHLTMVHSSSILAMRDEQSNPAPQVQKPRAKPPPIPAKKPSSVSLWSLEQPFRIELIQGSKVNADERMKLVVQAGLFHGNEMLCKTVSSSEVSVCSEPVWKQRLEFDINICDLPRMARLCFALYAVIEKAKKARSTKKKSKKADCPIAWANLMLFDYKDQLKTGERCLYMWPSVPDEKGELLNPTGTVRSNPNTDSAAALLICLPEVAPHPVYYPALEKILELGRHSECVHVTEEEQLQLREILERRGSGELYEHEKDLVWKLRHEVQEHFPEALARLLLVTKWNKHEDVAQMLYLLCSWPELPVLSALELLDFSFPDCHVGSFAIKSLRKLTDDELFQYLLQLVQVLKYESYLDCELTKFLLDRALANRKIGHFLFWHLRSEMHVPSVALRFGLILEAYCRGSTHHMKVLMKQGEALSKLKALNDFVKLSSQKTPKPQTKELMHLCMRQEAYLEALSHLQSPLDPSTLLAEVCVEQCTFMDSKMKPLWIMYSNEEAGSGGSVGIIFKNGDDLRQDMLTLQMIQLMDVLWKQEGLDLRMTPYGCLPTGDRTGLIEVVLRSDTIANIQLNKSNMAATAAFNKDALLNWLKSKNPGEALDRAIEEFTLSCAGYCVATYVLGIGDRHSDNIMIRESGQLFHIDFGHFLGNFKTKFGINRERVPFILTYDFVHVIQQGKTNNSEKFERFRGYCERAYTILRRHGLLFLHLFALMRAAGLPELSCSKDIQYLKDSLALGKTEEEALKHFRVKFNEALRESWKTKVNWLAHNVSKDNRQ

[2] = Half life in Sprague-Dawley rat at 10 mg/kg, po; format: ADME, organism-based; settings: in vivo
[3] = AUC (infinity) in Sprague-Dawley rat at 10 mg/kg, po; format: ADME, organism-based; design: dose 10 mg/kg, route oral, time infinity; settings: in vivo
[4] = AUClast in Sprague-Dawley rat at 5 mg/kg, iv; format: ADME, organism-based; design: dose 5 mg/kg, time 0 - last, route intravenous; settings: in vivo
[5] = biological target: T2, Phosphatidylinositol 4,5-bisphosphate 3-kinase catalytic subunit alpha isoform (Homo sapiens, UniProt P42336); experiment: Inhibition of PI3Kalpha (unknown origin) using PIP2 as substrate measured after 30 mins by HTRF assay
[6] = Oral bioavailability in Sprague-Dawley rat at 10 mg/kg; format: ADME, organism-based; settings: in vivo
[7] = Antiproliferative activity against human WSU-DLCL2 cells measured after 72 hrs by alamar blue assay; format: functional, cell-based; settings: WSUDLCL2, 72 h
[8] = biological target: Phosphatidylinositol 4,5-bisphosphate 3-kinase catalytic subunit beta isoform (Homo sapiens, UniProt P42338); experiment: Inhibition of PI3Kbeta (unknown origin) using PIP2 as substrate measured after 30 mins by HTRF assay
[9] = biological target: T1, Phosphatidylinositol 4,5-bisphosphate 3-kinase catalytic subunit delta isoform (Homo sapiens); experiment: Inhibition of PI3Kdelta-mediated Akt phosphorylation at […] in human MOLT4 cells measured after 1 hr by Western blot analysis; format: cell-based
Rattus norvegicus = experiment: AUC (infinity) in Sprague-Dawley rat at 5 mg/kg, iv; format: ADME, organism-based; design: dose 5 mg/kg, time infinity, route intravenous; settings: in vivo
[10] = AUClast in Sprague-Dawley rat at 10 mg/kg, po; format: ADME, organism-based; design: dose 10 mg/kg, time 0 - last, route oral; settings: in vivo
SU-DHL10 = experiment: Antiproliferative activity against human SU-DHL10 cells measured after 72 hrs by alamar blue assay; format: functional, cell-based; settings: SU-DHL10, 72 h
MOLT-4 = experiment: Antiproliferative activity against human MOLT4 cells measured after 72 hrs by alamar blue assay; format: functional, cell-based; settings: MOLT-4, 72 h
[11] = biological target: T1, Phosphatidylinositol 4,5-bisphosphate 3-kinase catalytic subunit delta isoform (Homo sapiens); experiment: Inhibition of PI3Kdelta-mediated S6k1 phosphorylation at T389 in human SUDHL6 cells measured after 1 hr by Western blot analysis; format: cell-based
[12] = Volume of distribution in Sprague-Dawley rat at 5 mg/kg, iv; format: ADME, organism-based; settings: in vivo
SU-DHL-6 = experiment: Antiproliferative activity against human SUDHL6 cells measured after 72 hrs by alamar blue assay; format: functional, cell-based; settings: SU-DHL-6, 72 h
KARPAS-422 = experiment: Antiproliferative activity against human KARPAS422 cells measured after 72 hrs by alamar blue assay; format: functional, cell-based; settings: KARPAS-422, 72 h
[13] = biological target: Voltage-gated inwardly rectifying potassium channel KCNH2 (Homo sapiens, UniProt Q12809); experiment: Inhibition of human ERG; settings: read-out: IC50
SUD4 = experiment: Antiproliferative activity against human SU-DHL4 cells measured after 72 hrs by alamar blue assay; format: functional, cell-based; settings: SU-DHL-4, 72 h
[14] = biological target: T1, Phosphatidylinositol 4,5-bisphosphate 3-kinase catalytic subunit delta isoform (Homo sapiens); experiment: Inhibition of PI3Kdelta-mediated Akt phosphorylation in human SUDHL6 cells at 3 nM measured after 1 hr by Western blot analysis; format: cell-based
SU-DHL-1 = experiment: Antiproliferative activity against human SU-DHL1 cells measured after 72 hrs by alamar blue assay; format: functional, cell-based; settings: SU-DHL-1, 72 h
HT = experiment: Antiproliferative activity against human HT cells measured after 72 hrs by alamar blue assay; format: functional, cell-based
[15] = biological target: T1, Phosphatidylinositol 4,5-bisphosphate 3-kinase catalytic subunit delta isoform (Homo sapiens); experiment: Inhibition of PI3Kdelta-mediated S6k1 phosphorylation at T389 in human MOLT4 cells measured after 1 hr by Western blot analysis; format: cell-based
NAMALVA = experiment: Antiproliferative activity against human NAMALWA cells measured after 72 hrs by alamar blue assay; format: functional, cell-based
[16] = Half life in Sprague-Dawley rat at 5 mg/kg, iv; format: ADME, organism-based; settings: in vivo
[17] = biological target: T3, Phosphatidylinositol 4,5-bisphosphate 3-kinase catalytic subunit gamma isoform (Homo sapiens, UniProt P48736); experiment: Inhibition of PI3Kgamma (unknown origin) using PIP2 as substrate measured after 30 mins by HTRF assay
[18] = biological target: T4, Phosphatidylinositol 4,5-bisphosphate 3-kinase catalytic subunit delta isoform (Homo sapiens, UniProt O00329); experiment: Inhibition of PI3Kdelta (unknown origin) using PIP2 as substrate measured after 30 mins by HTRF assay
T4 sequence (O00329 whole entry): T1 sequence (whole entry)

hERG (KCNH2) = hERG (KCNH2) (Homo sapiens, UniProt Q12809); experiment: Inhibition of human ERG at 40 uM relative to control
[19] = biological target: T2, Phosphatidylinositol 4,5-bisphosphate 3-kinase catalytic subunit alpha isoform; experiment: Inhibition of PI3Kalpha (unknown origin) using biotinylated PIP2 as substrate after 2 hrs by TR-FRET assay
[20] = biological target: T3, Phosphatidylinositol 4,5-bisphosphate 3-kinase catalytic subunit gamma isoform; experiment: Inhibition of PI3Kgamma (unknown origin) using biotinylated PIP2 as substrate after 2 hrs by TR-FRET assay
[21] = biological target: T4, Phosphatidylinositol 4,5-bisphosphate 3-kinase catalytic subunit delta isoform; experiment: Inhibition of PI3Kdelta (unknown origin) using biotinylated PIP2 as substrate after 2 hrs by TR-FRET assay
U-937 = experiment: Inhibition of phorbol 12-myristate 13-acetate-induced peroxide production in human U937 cells; format: functional, cell-based

T3 sequence (P48736 whole entry, canonical isoform): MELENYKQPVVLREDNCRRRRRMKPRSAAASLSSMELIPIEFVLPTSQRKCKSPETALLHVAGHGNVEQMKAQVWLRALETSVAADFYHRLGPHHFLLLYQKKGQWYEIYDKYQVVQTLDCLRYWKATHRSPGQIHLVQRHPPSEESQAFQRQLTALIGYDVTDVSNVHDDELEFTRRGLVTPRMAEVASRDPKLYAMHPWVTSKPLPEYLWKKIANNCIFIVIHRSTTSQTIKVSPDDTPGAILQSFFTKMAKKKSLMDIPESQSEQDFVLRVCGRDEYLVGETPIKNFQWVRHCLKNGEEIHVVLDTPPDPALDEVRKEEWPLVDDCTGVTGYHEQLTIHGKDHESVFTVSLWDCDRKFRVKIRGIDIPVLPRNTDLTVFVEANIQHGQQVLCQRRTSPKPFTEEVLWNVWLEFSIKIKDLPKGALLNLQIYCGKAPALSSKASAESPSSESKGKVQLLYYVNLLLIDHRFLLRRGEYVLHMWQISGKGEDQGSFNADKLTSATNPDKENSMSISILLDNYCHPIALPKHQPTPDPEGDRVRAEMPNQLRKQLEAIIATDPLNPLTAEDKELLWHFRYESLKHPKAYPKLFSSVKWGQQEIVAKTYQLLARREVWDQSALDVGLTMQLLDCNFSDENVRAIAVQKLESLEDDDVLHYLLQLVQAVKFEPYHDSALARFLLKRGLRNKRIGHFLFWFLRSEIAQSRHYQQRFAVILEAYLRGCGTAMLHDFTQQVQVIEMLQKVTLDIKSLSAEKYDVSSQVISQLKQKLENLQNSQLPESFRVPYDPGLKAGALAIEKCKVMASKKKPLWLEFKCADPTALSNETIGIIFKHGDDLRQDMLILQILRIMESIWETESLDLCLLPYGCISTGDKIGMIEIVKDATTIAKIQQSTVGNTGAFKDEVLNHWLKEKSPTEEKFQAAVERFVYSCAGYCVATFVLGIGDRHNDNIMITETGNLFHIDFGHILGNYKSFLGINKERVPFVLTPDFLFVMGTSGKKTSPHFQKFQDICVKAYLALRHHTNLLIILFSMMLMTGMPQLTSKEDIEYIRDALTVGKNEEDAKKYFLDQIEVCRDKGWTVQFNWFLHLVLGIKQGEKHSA
T2 sequence (P42336 whole entry, canonical isoform): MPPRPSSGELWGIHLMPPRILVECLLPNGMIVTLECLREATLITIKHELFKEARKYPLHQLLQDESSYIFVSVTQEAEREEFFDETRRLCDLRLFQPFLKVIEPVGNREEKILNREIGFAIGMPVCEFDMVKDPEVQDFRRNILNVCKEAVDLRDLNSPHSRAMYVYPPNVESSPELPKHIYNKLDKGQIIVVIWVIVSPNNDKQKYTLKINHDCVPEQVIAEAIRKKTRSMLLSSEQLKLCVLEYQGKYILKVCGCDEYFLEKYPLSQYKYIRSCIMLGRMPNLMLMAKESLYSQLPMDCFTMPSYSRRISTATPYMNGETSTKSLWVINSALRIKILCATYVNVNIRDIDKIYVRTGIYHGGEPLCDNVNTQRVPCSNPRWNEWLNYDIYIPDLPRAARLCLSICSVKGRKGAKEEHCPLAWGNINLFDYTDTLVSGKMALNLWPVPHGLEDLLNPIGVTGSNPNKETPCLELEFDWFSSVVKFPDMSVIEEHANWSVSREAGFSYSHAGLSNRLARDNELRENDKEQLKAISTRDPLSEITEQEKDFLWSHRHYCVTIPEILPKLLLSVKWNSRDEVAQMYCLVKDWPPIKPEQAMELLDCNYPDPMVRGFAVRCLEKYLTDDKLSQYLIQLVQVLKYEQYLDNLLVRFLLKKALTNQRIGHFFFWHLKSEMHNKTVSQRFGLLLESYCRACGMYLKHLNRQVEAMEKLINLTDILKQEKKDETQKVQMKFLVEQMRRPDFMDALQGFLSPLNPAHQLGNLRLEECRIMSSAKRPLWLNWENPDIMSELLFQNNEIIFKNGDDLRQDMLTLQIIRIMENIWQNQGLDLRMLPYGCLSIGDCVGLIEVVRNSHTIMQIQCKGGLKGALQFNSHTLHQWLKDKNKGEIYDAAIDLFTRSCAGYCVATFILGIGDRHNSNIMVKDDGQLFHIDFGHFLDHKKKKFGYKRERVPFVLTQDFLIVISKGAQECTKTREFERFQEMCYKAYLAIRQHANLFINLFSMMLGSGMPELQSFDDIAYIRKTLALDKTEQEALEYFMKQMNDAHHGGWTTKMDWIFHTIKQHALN
Sequence of Voltage-gated inwardly rectifying potassium channel KCNH2 (Q12809 whole entry): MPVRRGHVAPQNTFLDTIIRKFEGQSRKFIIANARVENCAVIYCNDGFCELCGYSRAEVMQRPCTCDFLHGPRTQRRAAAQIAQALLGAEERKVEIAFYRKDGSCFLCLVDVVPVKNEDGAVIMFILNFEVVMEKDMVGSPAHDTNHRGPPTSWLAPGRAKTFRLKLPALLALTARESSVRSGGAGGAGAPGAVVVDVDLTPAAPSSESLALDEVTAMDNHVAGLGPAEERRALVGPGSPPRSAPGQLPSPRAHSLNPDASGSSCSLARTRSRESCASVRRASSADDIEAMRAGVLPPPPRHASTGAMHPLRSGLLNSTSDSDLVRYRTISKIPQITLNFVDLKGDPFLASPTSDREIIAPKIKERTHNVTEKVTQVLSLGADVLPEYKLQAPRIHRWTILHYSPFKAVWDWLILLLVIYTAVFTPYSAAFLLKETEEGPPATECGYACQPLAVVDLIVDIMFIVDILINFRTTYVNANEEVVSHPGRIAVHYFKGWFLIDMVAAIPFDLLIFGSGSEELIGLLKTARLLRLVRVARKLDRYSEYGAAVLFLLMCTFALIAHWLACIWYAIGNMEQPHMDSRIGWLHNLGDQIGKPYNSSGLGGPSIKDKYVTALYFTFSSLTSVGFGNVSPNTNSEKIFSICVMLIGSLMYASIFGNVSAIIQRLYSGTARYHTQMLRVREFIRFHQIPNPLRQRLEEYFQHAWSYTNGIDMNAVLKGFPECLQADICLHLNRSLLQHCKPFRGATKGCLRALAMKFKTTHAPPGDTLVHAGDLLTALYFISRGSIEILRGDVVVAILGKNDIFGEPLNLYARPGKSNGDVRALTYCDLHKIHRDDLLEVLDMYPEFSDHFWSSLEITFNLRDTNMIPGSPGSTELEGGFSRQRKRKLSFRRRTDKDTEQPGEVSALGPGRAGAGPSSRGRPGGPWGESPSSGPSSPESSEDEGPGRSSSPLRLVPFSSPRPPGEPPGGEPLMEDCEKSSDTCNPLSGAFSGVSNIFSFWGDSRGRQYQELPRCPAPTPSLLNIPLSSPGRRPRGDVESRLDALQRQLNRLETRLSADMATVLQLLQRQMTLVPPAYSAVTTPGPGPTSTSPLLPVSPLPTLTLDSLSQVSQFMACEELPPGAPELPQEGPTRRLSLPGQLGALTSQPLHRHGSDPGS
Sequence of hERG (KCNH2) (Q12809 whole entry, canonical isoform): as the sequence (Q12809 whole entry) above

Q: What does the source list for `CC[C@H](Nc1nc(N)nc(N)c1C#N)c1nc2cccc(C#CCCCC(=O)N3CCOCC3)c2c(=O)n1-c1ccccc1`?
A: IC50 (Pfeiffer): 1400 nM; inhibition [1]: Dose-dependent effect; half-life [2]: 1.46 h; AUC(0-inf) [3]: 958 ng·h/mL; AUC(0-t) [4]: 1050 ng·h/mL; IC50 [5]: 591 nM; bioavailability [6]: 29.7%; IC50 [7]: 5700 nM; IC50 [8]: 509 nM; inhibition [9]: Dose-dependent effect; AUC (Rattus norvegicus): 1057 ng·h/mL; AUC(0-t) [10]: 938 ng·h/mL; IC50 (SU-DHL10): 1900 nM; IC50 (MOLT-4): 2400 nM; inhibition [11]: Dose-dependent effect; Vd [12]: 0.545 L/kg; IC50 (SU-DHL-6): 7.6 nM; IC50 (KARPAS-422): 2000 nM; IC50 [13]: > 40000 nM; IC50 (SUD4): 1600 nM; inhibition [14]: Active; IC50 (SU-DHL-1): 5600 nM; IC50 (HT): 4900 nM; inhibition [15]: Dose-dependent effect; IC50 (NAMALVA): 3300 nM; half-life [16]: 1.28 h; IC50 [17]: 91.9 nM; IC50 [18]: 3.82 nM; inhibition at 40 µM (hERG (KCNH2)): 34.1%

Q: What does the source list for `COCCOCCNC(=O)CCCC#Cc1cccc2nc(Cn3nc(-c4cccc(O)c4)c4c(N)ncnc43)n(Cc3ccccc3Cl)c(=O)c12`?
A: IC50 [19]: 1490 nM; IC50 [20]: 47 nM; IC50 [21]: 3 to 12 nM; IC50 (U-937): 1.1 nM
